Experimental findings from paper PMC9073595, “Synthesis, human topoisomerase IIα inhibitory properties and molecular modeling studies of anti-proliferative curcumin mimics” (RSC Advances, 2019) are described below.

Data set [1] concerns HCT116 (colon) carcinoma cell line. Put plainly: MTT anti-proliferative assay, HCT116. The class given is cell-based. Particulars: Homo sapiens, HCT-116, 72 h; read-out: IC50, μM ± SD, HCT116.
The subject of data set [2] is MCF7 (breast) carcinoma cell line. Put plainly: MTT anti-proliferative assay, MCF7. Type of data set: cell-based. Particulars: Homo sapiens, MCF7, 72 h; read-out: IC50, μM ± SD, MCF7. In general terms: Formazan colour is commonly taken as a measure of viable cells.
Data set [3] deals with A431 (squamous skin) carcinoma cell line. Put plainly: MTT anti-proliferative assay, A431. The class given is cell-based. Particulars: Homo sapiens, A-431, 72 h; read-out: IC50, μM ± SD, A431.
Data set [4] concerns RPE1 (normal human immortalized retinal pigment epithelial cell line). In words: MTT assay on normal cells, RPE1. Type of data set: cell-based. The note with it: RPE-1, RPE1 normal (non-cancer) cell line, read-out: IC50, μM ± SD, RPE1. As to the method: In-vitro antitumor screening
The targeted piperidinecarboxamides 24‒51 were screened for their antitumor properties against HCT116 (colon), MCF7 (breast) and A431 (squamous skin) carcinoma cell lines by the standard mitochondrial dependent reduction of yellow MTT [3-(4,5-dimethylthiazol-2-yl)-2,5-diphenyl-tetrazolium bromide] to purple formazan technique.11 Cells were suspended in McCoy’s 5A medium for HCT116, DMEM for MCF-7 and A431 in addition to 1% antibiotic–antimycotic mixture (10000 μg ml-1 potassium penicillin, 10000 μg ml-1 streptomycin sulfate and 25 μg ml-1 amphotericin B), 10% fetal bovine serum and 1% L-glutamine at 37 °C, under 5% CO2 and 95% humidity. Cells were seeded at concentration of 30000 cells per well in fresh complete growth medium in 96-well tissue culture microtiter plates for 24 h. Media was aspirated, fresh complete medium was added and cells were incubated with different concentrations of the tested compound to give a final concentration of [50, 25, 12.5 and 6.25 μM ([…] and 0.375 μM for the high potent analogues)]. 0.5% DMSO was used as negative control and 5-fluorouracil was used as positive control (standard reference). Triplicate wells were prepared for each individual dose. After 72 h of incubation, medium was aspirated, 40 μl MTT salt (2.5 mg ml-1) were added to each well and incubated for further 4 h at 37 °C.
To stop the reaction and dissolve the formed crystals, 150 μl of 10% sodium dodecyl sulfate (SDS) in deionized water were added to each well and incubated overnight at 37 °C. The absorbance was then measured at 570 nm and a reference wavelength of 595 nm.
Data were collected as mean values for experiments performed in triplicates for each individual dose which had been measured by MTT assay. Control experiments did […]
survival was calculated according to equ. (1).
Surviving fraction = … . (1)
The synthesized compounds 24‒51 were also tested against RPE1 (normal human immortalized retinal pigment epithelial cell line) cell to determine the toxicity/selectivity […]
towards normal cells relative to the carcinoma cell lines utilized. The IC50 (concentration […]
was determined using Graph-Pad PRISM version-5 software. Statistical calculations for determination of the mean and standard error values were determined by SPSS 16 […]
8:1 which is the ratio between the data points and the number of QSAR descriptor).
Human DNA topoisomerase IIα inhibitory properties

Data set [5] has as its target T1, human DNA topoisomerase IIα (Homo sapiens, UniProt P11388).
T1 construct: purchased TopoGEN, Inc
In words: Human DNA topoisomerase IIα activity assay (TopoGEN kit, plasmid based). Type of data set: biochemical.

Molecules are shown by their SMILES.

T1 sequence (P11388 whole entry): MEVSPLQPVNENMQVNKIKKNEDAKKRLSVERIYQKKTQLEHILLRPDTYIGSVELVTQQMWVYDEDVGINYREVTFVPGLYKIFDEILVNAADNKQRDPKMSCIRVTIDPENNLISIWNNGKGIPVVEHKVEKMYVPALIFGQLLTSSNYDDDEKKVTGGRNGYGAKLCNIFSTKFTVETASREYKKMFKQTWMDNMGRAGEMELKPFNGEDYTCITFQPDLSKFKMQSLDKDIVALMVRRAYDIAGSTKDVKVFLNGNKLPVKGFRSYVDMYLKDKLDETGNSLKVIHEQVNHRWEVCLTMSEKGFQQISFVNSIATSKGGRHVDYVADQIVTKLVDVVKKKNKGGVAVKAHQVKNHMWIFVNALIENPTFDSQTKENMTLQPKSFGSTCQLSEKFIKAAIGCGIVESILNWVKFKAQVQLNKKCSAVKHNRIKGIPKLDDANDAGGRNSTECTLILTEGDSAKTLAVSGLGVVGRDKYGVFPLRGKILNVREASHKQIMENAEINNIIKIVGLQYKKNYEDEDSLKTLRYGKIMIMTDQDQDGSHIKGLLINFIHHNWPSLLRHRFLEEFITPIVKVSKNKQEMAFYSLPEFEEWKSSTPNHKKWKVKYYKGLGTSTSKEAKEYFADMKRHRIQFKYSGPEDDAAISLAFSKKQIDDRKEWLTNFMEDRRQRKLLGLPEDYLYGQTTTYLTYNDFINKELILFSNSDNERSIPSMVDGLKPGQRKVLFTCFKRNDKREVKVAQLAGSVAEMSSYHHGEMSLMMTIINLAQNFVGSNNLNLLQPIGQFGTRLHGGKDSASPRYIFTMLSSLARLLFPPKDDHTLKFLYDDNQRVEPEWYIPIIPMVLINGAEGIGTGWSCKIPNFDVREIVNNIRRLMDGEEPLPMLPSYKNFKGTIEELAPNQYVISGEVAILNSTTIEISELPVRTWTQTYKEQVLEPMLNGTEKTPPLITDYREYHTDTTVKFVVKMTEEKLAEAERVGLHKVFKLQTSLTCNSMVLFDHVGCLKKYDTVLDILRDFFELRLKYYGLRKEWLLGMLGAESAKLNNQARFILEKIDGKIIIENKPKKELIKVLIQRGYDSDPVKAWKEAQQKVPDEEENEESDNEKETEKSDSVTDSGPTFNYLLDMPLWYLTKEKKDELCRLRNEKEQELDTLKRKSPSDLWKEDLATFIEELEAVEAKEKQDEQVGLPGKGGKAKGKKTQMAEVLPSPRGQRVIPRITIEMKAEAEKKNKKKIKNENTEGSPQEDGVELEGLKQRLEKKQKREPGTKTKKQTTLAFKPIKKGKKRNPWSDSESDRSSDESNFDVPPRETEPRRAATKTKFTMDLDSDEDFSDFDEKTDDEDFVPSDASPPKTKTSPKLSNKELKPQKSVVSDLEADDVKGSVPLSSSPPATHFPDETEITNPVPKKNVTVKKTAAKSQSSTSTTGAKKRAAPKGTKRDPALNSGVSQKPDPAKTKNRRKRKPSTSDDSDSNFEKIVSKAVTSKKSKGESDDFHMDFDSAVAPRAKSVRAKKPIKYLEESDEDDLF

For `O=C1/C(=C/c2ccc(F)cc2)CN(C(=O)NCc2ccccc2)C/C1=C\c1ccc(F)cc1` [Compound 38, N-Benzyl-3,5-bis[(E)-4-fluorobenzylidene]-4-oxopiperidine-1-carboxamide], the melting point (in general, the temperature of the solid-liquid transition) is 178 to 180 °C. Also, the IC50 (in general, the concentration that gives 50% inhibition) in data set [1] is 0.56 ± 0.03 µM. The IC50 in data set [2] turned out to be 2.16 ± 0.15 µM. Besides, the IC50 in data set [3] worked out at 1.33 ± 0.17 µM. Further, the IC50 in data set [4] stood at 10.9 ± 1.42 µM. Half-maximal inhibition in data set [5] (IC50) was put at 35 ± 2.08 µM.
In turn, `Cc1ccc(/C=C2\CN(C(=O)Nc3ccccc3)C/C(=C\c3ccc(C)cc3)C2=O)cc1` [Compound 39, 3,5-Bis[(E)-4-methylbenzylidene]-4-oxo-N-phenylpiperidine-1-carboxamide] yielded a melting point of 221 to 223 °C. Also, in data set [1], the IC50 is 1.44 ± 0.17 µM. For the same compound, the IC50 in data set [2] stood at 3.96 ± 0.29 µM. In data set [3], the IC50 came to 2.57 ± 0.15 µM. Moreover, in data set [4], the IC50 was over 50 µM. The compound further displayed an IC50 in data set [5] of 41.3 ± 1.6 µM.
The compound `COc1ccc(NC(=O)N2C/C(=C\c3ccc(C)cc3)C(=O)/C(=C/c3ccc(C)cc3)C2)cc1` [Compound 40, N-(4-Methoxyphenyl)-3,5-bis[(E)-4-methylbenzylidene]-4-oxopiperidine-1-carboxamide] displayed a melting point of 230 to 232 °C. In data set [1], the IC50 was 2.73 ± 0.2 µM. Moreover, the IC50 in data set [2] came to 5.1 ± 0.3 µM. Moreover, the IC50 in data set [3] was 4.9 ± 0.34 µM. In addition, the IC50 in data set [4] was over 50 µM. This compound also had a concentration for half-maximal inhibition (IC50) in data set [5] of 40.3 ± 1.56 µM.
As to `CCNC(=O)N1C/C(=C\c2ccc(C)cc2)C(=O)/C(=C/c2ccc(C)cc2)C1` [Compound 41, N-Ethyl-3,5-bis[(E)-4-methylbenzylidene]-4-oxopiperidine-1-carboxamide], the melting point is 174 to 176 °C. Further, in data set [1], the IC50 stood at 2.26 ± 0.23 µM. In data set [2], the IC50 came out at 4.58 ± 0.28 µM. Further, the IC50 in data set [3] was found to be 2.64 ± 0.27 µM. The IC50 in data set [4] was 18.9 ± 1.33 µM. Besides, in data set [5], the IC50 is 50.2 ± 1.94 µM.
In turn, `Cc1ccc(/C=C2\CN(C(=O)NCc3ccccc3)C/C(=C\c3ccc(C)cc3)C2=O)cc1` [Compound 42, N-Benzyl-3,5-bis[(E)-4-methylbenzylidene]-4-oxopiperidine-1-carboxamide] yielded a melting point of 166 to 168 °C. The IC50 in data set [1] is 23 ± 1.82 µM. Besides, the IC50 in data set [2] was found to be 4.9 ± 0.26 µM. The 50% inhibitory concentration (IC50) in data set [3] amounted to 8.75 ± 0.4 µM. In data set [4], the IC50 was 47 ± 2.17 µM. For the same compound, the IC50 in data set [5] came to 31.5 ± 1.22 µM.
Consider `COc1ccc(/C=C2\CN(C(=O)Nc3ccccc3)C/C(=C\c3ccc(OC)cc3)C2=O)cc1` [Compound 43, 3,5-Bis[(E)-4-methoxybenzylidene]-4-oxo-N-phenylpiperidine-1-carboxamide], for which the melting point lay within 190 to 192 °C. Further, in data set [1], the IC50 is 1.23 ± 0.15 µM. For the same compound, the IC50 in data set [2] turned out to be 3.96 ± 0.23 µM. The IC50 in data set [3] is 2.72 ± 0.2 µM. For the same compound, the IC50 in data set [4] is over 50 µM. This compound also displayed an IC50 in data set [5] of 28.3 ± 1.09 µM.
As to `COc1ccc(/C=C2\CN(C(=O)Nc3ccc(Cl)cc3)C/C(=C\c3ccc(OC)cc3)C2=O)cc1` [Compound 44, N-(4-Chlorophenyl)-3,5-bis[(E)-4-methoxybenzylidene]-4-oxopiperidine-1-carboxamide], the melting point is 185 to 187 °C. Further, the IC50 in data set [1] was found to be 1.11 ± 0.09 µM. In data set [2], the IC50 was 4.17 ± 0.27 µM. Moreover, the IC50 in data set [3] was determined as 2.85 ± 0.16 µM. In data set [4], the IC50 is over 50 µM. Further, the IC50 in data set [5] stood at 46.2 ± 1.79 µM.
Consider `COc1ccc(/C=C2\CN(C(=O)Nc3ccc(OC)cc3)C/C(=C\c3ccc(OC)cc3)C2=O)cc1` [Compound 45, 3,5-Bis[(E)-4-methoxybenzylidene]-N-(4-methoxyphenyl)-4-oxopiperidine-1-carboxamide], for which the melting point was 212 to 214 °C. In addition, the IC50 in data set [1] came out at 1.38 ± 0.15 µM. Moreover, the IC50 in data set [2] turned out to be 5.85 ± 0.31 µM. In addition, in data set [3], the IC50 is 11.3 ± 1.1 µM. Moreover, in data set [4], the IC50 is over 50 µM. This compound had a half-inhibitory concentration (IC50) in data set [5] of 39.3 ± 1.52 µM.
Regarding `CCNC(=O)N1C/C(=C\c2ccc(OC)cc2)C(=O)/C(=C/c2ccc(OC)cc2)C1` [Compound 46, N-Ethyl-3,5-bis[(E)-4-methoxybenzylidene]-4-oxopiperidine-1-carboxamide], the melting point lay in the range of 173 to 175 °C. The IC50 in data set [1] came to 1.5 ± 0.14 µM. Besides, the IC50 in data set [2] came to 5.73 ± 0.33 µM. In data set [3], the IC50 stood at 8.83 ± 1.26 µM. Moreover, the IC50 in data set [4] stood at 47.7 ± 3.05 µM. In addition, the IC50 in data set [5] came to 56.2 ± 2.18 µM.
`COc1ccc(/C=C2\CN(C(=O)NCc3ccccc3)C/C(=C\c3ccc(OC)cc3)C2=O)cc1` [Compound 47, N-Benzyl-3,5-bis[(E)-4-methoxybenzylidene]-4-oxopiperidine-1-carboxamide]: the melting point lay in the range of 177 to 179 °C. Also, the IC50 in data set [1] was 1.29 ± 0.19 µM. Further, the IC50 in data set [2] was 4.89 ± 0.25 µM. For the same compound, the IC50 in data set [3] was found to be 7.98 ± 1.34 µM. The IC50 in data set [4] is over 50 µM. The same compound came in with an IC50 in data set [5] of 33 ± 1.28 µM.
